US20140011749A1, “KETOGENIC DIET COMPOSITION FOR THE TREATMENT OF CHEMO THERAPY AND/OR RADIATION THERAPY PATIENTS” (priority 2011, published 2014)

Tested on: GL261-luc cells
Assay: GL261-luc intracranial malignant glioma mouse model: survival and bioluminescence
Assay type: in vivo, albino C57BL/6 mice
Conditions: TMZ (5×50 mg/kg), animals maintained on SD
Method: GL261-luc cells expressing luciferase were stereotactically implanted into the right frontal lobe of immune-competent albino C57BL/6 mice (NCI, Frederick, Md.). Following intracranial implantation, animals were fed standard rodent chow (SD) and were randomized to treatment groups on day 3 (SD vs KetoCal® with and without radiation or TMZ) based on bioluminescent signal (IVIS® Spectrum in vivo imaging system, Caliper Life Sciences, Hopkinton, Mass.). […] Mice were maintained on a 12 hour light/dark cycle and KetoCal® or SD was available ad libitum.

Compound `Cn1nnc2c(C(N)=O)ncn2c1=O` [TMZ, temozolomide] has a median survival of 28 days.
